According to patent publication US20080145858A1, “DETECTION AND IDENTIFICATION OF TOXICANTS BY MEASUREMENT OF GENE […]” (priority 2003, published 2008):
Marks after values point to notes of the source that are not given here.

Tested on: Xenopus laevis cleavage stage embryos (stage 8)
Assay: Xenopus cDNA microarray, differential gene expression after PMA treatment during cleavage stage (Group I)
Format: in vivo
Conditions: stage 8; for Normalized by Landmarks (1.59) / Normalized by all Data Points (1.28) / Ratio of Medians (Cy5/Cy3) First Spot / Ratio of Medians (Cy5/Cy3) Mean / Ratio of Medians (Cy5/Cy3) Second Spot / (CY3/CY5) by Landmarks (1.6) / (CY3/CY5) by all Data Points (1.3) / Normalization by Landmarks (1.6) / Normalization by all Data Points (1.3): PMA 100 ng/ml
Description: Specifically, the method and screen of the present invention function as follows. EST clones produced from Xenopus laevis unfertilized eggs were used in the present study with ˜1,200 EST clones from a 18,500 EST clone set selected for production of a Xenopus cDNA microarray. The Xenopus microarray was used to measure the effect of chemical treatment on Xenopus embryo gene regulation. The chemical treatment was a phorbol ester, PMA. Xenopus eggs were obtained from females induced for ovulation and fertilized in vitro. Control Xenopus laevis embryos were allowed to develop to stage 8 blastula or stage 15 neurula. Treated embryos were exposed to PMA during cleavage stage or during neurulation with end points of blastula (stage 8) or neurula (stage 15). Specifically, PMA 100 ng/ml was added to the incubation media during cleavage stages for evaluation in stage 8 embryo or PMA was added during neural induction for evaluation in stage 15 embryos. RNA extracted from the embryos was used to generate fluorescent cDNA probes for Xenopus microarray analyses to measure differential gene expression with and without the phorbol ester treatment. Analysis was performed using paired RNA samples to compare PMA-treated and untreated embryos: Group I measured the effects of PMA-treatment during the cleavage stage in stage 8 embryos and Group II measured the effects of PMA-treatment during neurulation in stage 15 embryos. Group III measured the change in gene expression between stage 8 and stage 15 embryos.
cDNA fragments were obtained by PCR replication of Xenopus laevis unfertilized egg cDNA inserts, purified, quantitated and loaded onto glass chips by robotics. In addition to the selected ˜1,200 genes, 64 lambda Q gene, an internal control cDNA (Genomic Solutions, Inc., Ann Arbor, Mich.) was loaded on the chip. The insert DNA from ˜1,200 clones were PCR amplified using forward and reverse primers (GF.200 primers, Research Genetics, Huntsville, Ala.). A second PCR was carried out using 1 μl of the primary PCR (20 μl) for template. Excess dNTPs, polymerase and other PCR artifacts were removed from the secondary PCR reactions using Millipore Multiscreen plates (Millipore Corporation, Bedford, Mass.) using the standard protocol. The purity of the PCR products was assessed by electrophoresis and documented using an Alphalmager 1000 Digital Imaging System (Alpha Innotech Corporation, San Leandro, Calif.). The DNA obtained by PCR was quantitated using PicoGreen (Molecular Probes, Eugene, Oreg.). The DNA was denatured and arrayed onto amino-silane coated microscope slides (CMT-GAPS coated slides, Corning, Corning, N.Y.) using a Flexys robotic workstation (Genomic Solutions Inc.). The ˜1,200 PCR products were arrayed in duplicate on each slide and cross-linked. Each gene chip contained duplicate cDNA samples.
Total RNA was prepared from embryos treated in three separate dishes per treatment group that were pooled. Total RNA was isolated from the frog embryos (1,200 embryos for each probe production) using TRIzol extraction (Gibco BRL, Grand Island, N.Y.) and Qiagen RNeasy kits (Qiagen, Valencia, Calif.). The ethanol precipitated RNA was resuspended in RNase-free water, quantitated with RiboGreen (Molecular Probes, Eugene, Oreg.). Total RNA was further purified using oligoTex mRNA maxi kit (Qiagen Co.) with the bound mRNA eluted with minimum volume of elution buffer and precipitated with ethanol. The recovery rate of mRNA by the ethanol precipitation method was ˜70%. Cy3- or Cy5-tagged probes were produced from an mRNA mixture (20 μl) of Xenopus mRNA (5 μg) and lambda Q gene mRNA (3.5 ng) reverse-transcribed with oligo(dT)18-22 primer and dNTPs and the reverse-transcribed cDNA was cross-linked with Cy3 or Cy5 as described in Clontech Atlas™ Glass Fluorescent Labeling kit manual (www.clontech.com). After hydrolysis of the RNA and purification of the probe (Centricon 50, Millipore, Bedford, Mass.), the cDNA in TE buffer was quantitated by absorbance at 260 nm. […]

SMILES: CCCCCCCCCCCCCC(=O)O[C@@H]1[C@@H](C)[C@@]2(O)[C@@H](C=C(CO)C[C@]3(O)C(=O)C(C)=C[C@@H]23)[C@@H]2C(C)(C)[C@]12OC(C)=O [PMA, phorbol 12-myristate 12-acetate]
- alpha-tubulin expression ratio, mean of 4 data points using NF from landmarks (2 alpha-tubulin genes (house keeping)): 0.85
- Normalized by Landmarks (1.59) (PBX0134C10 mRNA): 7.95
- Normalized by all Data Points (1.28) (PBX0134C10 mRNA): 6.40
- Ratio of Medians (Cy5/Cy3) First Spot (PBX0134C10 mRNA): 3.33
- Ratio of Medians (Cy5/Cy3) Mean (PBX0134C10 mRNA): 5.00 ± 1.67^a
- Ratio of Medians (Cy5/Cy3) Second Spot (PBX0134C10 mRNA): 6.67
- Normalized by Landmarks (1.59) (PBX0134E04 mRNA): 4.58
- Normalized by all Data Points (1.28) (PBX0134E04 mRNA): 3.69
- Ratio of Medians (Cy5/Cy3) First Spot (PBX0134E04 mRNA): 2.75
- Ratio of Medians (Cy5/Cy3) Mean (PBX0134E04 mRNA): 2.88 ± 0.12
- Ratio of Medians (Cy5/Cy3) Second Spot (PBX0134E04 mRNA): 3.00
- Normalized by Landmarks (1.59) (PBX0134G08 mRNA): 7.62
- Normalized by all Data Points (1.28) (PBX0134G08 mRNA): 6.13
- Ratio of Medians (Cy5/Cy3) First Spot (PBX0134G08 mRNA): 4.25
- Ratio of Medians (Cy5/Cy3) Mean (PBX0134G08 mRNA): 4.79 ± 0.54
- Ratio of Medians (Cy5/Cy3) Second Spot (PBX0134G08 mRNA): 5.33
- Normalized by Landmarks (1.59) (PBX0134G10 mRNA): 5.20
- Normalized by all Data Points (1.28) (PBX0134G10 mRNA): 4.19
- Ratio of Medians (Cy5/Cy3) First Spot (PBX0134G10 mRNA): 2.71
- Ratio of Medians (Cy5/Cy3) Mean (PBX0134G10 mRNA): 3.27 ± 0.56
- Ratio of Medians (Cy5/Cy3) Second Spot (PBX0134G10 mRNA): 3.83
- Normalized by Landmarks (1.59) (PBX0134G11 mRNA): 3.90
- Normalized by all Data Points (1.28) (PBX0134G11 mRNA): 3.14
- Ratio of Medians (Cy5/Cy3) First Spot (PBX0134G11 mRNA): 2.50
- Ratio of Medians (Cy5/Cy3) Mean (PBX0134G11 mRNA): 2.45 ± 0.05
- Ratio of Medians (Cy5/Cy3) Second Spot (PBX0134G11 mRNA): 2.40
- Normalized by Landmarks (1.59) (PBX0134H03 mRNA): 5.44
- Normalized by all Data Points (1.28) (PBX0134H03 mRNA): 4.38
- Ratio of Medians (Cy5/Cy3) First Spot (PBX0134H03 mRNA): 3.67
- Ratio of Medians (Cy5/Cy3) Mean (PBX0134H03 mRNA): 3.42 ± 0.25
- Ratio of Medians (Cy5/Cy3) Second Spot (PBX0134H03 mRNA): 3.17
- Normalized by Landmarks (1.59) (PBX0135C06 mRNA): 4.29
- Normalized by all Data Points (1.28) (PBX0135C06 mRNA): 3.46
- Ratio of Medians (Cy5/Cy3) First Spot (PBX0135C06 mRNA): 3.00
- Ratio of Medians (Cy5/Cy3) Mean (PBX0135C06 mRNA): 2.70 ± 0.30
- Ratio of Medians (Cy5/Cy3) Second Spot (PBX0135C06 mRNA): 2.40
- (CY3/CY5) by Landmarks (1.6) (PBX0136B04 mRNA): 2.76
- (CY3/CY5) by all Data Points (1.3) (PBX0136B04 mRNA): 4.41
- Normalization by Landmarks (1.6) (PBX0136B04 mRNA): 0.36
- Normalization by all Data Points (1.3) (PBX0136B04 mRNA): 0.23
- Ratio of Medians (Cy5/Cy3) First Spot (PBX0136B04 mRNA): 0.11
- Ratio of Medians (Cy5/Cy3) Mean (PBX0136B04 mRNA): 0.17 ± 0.06
- Ratio of Medians (Cy5/Cy3) Second Spot (PBX0136B04 mRNA): 0.24
- Normalized by Landmarks (1.59) (PBX0136C09 mRNA): 5.55
- Normalized by all Data Points (1.28) (PBX0136C09 mRNA): 4.47
- Ratio of Medians (Cy5/Cy3) First Spot (PBX0136C09 mRNA): 3.80
- Ratio of Medians (Cy5/Cy3) Mean (PBX0136C09 mRNA): 3.49 ± 0.31
- Ratio of Medians (Cy5/Cy3) Second Spot (PBX0136C09 mRNA): 3.17
- Normalized by Landmarks (1.59) (PBX0136F03 mRNA): 5.26
- Normalized by all Data Points (1.28) (PBX0136F03 mRNA): 4.24
- Ratio of Medians (Cy5/Cy3) First Spot (PBX0136F03 mRNA): 3.50
- Ratio of Medians (Cy5/Cy3) Mean (PBX0136F03 mRNA): 3.31 ± 0.20
- Ratio of Medians (Cy5/Cy3) Second Spot (PBX0136F03 mRNA): 3.11
- Normalized by Landmarks (1.59) (PBX0137A11 mRNA): 5.31
- Normalized by all Data Points (1.28) (PBX0137A11 mRNA): 4.28
- Ratio of Medians (Cy5/Cy3) First Spot (PBX0137A11 mRNA): 2.17
- Ratio of Medians (Cy5/Cy3) Mean (PBX0137A11 mRNA): 3.34 ± 1.66
- Ratio of Medians (Cy5/Cy3) Second Spot (PBX0137A11 mRNA): 4.50
- (CY3/CY5) by Landmarks (1.6) (PBX0137E10 mRNA): 1.85
- (CY3/CY5) by all Data Points (1.3) (PBX0137E10 mRNA): 2.96
- Normalization by Landmarks (1.6) (PBX0137E10 mRNA): 0.54
- Normalization by all Data Points (1.3) (PBX0137E10 mRNA): 0.34
- Ratio of Medians (Cy5/Cy3) First Spot (PBX0137E10 mRNA): 0.31
- Ratio of Medians (Cy5/Cy3) Mean (PBX0137E10 mRNA): 0.26 ± 0.05
- Ratio of Medians (Cy5/Cy3) Second Spot (PBX0137E10 mRNA): 0.21
- Normalized by Landmarks (1.59) (PBX0137G06 mRNA): 3.74
- Normalized by all Data Points (1.28) (PBX0137G06 mRNA): 3.01
- Ratio of Medians (Cy5/Cy3) First Spot (PBX0137G06 mRNA): 2.22
- Ratio of Medians (Cy5/Cy3) Mean (PBX0137G06 mRNA): 2.35 ± 0.13
- Ratio of Medians (Cy5/Cy3) Second Spot (PBX0137G06 mRNA): 2.47
- Normalized by Landmarks (1.59) (PBX0138A04 mRNA): 4.75
- Normalized by all Data Points (1.28) (PBX0138A04 mRNA): 3.83
- Ratio of Medians (Cy5/Cy3) First Spot (PBX0138A04 mRNA): 1.64
